We go through 1 molecule from patent publication US20130310352A1, “DEXAMETHASONE COMBINATION THERAPY” (priority 2010, published 2013).

Series [1] concerns normal PBMCs from healthy volunteers. As to the kind of experiment: Apoptosis of normal PBMCs. The format is cell-based, human. Conditions: 24 hours. As for the experimental part: (§1) MM cell lines ARP1, ARK, MM.1S, MM.1R and U266 were maintained in RPMI-1640 medium supplemented with 10% fetal bovine serum, 100 U/ml penicillin and 100 μg/ml streptomycin at 37° C. and 5% CO2 Primary MM cells and MM BMSCs were isolated from bone marrow aspirates of myeloma patients. PBMCs were obtained from healthy volunteers. The study was approved by the Institutional Review Board at The University of Texas M.D. Anderson Cancer Center. Anti-caspase-3, caspase-9, PARP, Bim, XIAP, cyclin D1, pp 70S6K (Thr389) and p27(Kip1) antibodies were purchased from Cell Signaling. Anti-bcl-2, Bc1-XL, Akt, pAkt (Thr 308), pAkt (Ser 473), p70S6K and β-actin antibodies were purchased from Santa Cruz. Compound A was dissolved in DMSO at 10 mM as stock solution. Dexamethasone and Propidium iodide (PI) were purchased from Sigma-Aldrich. Recombinant human IL6 was purchased from R&D Systems. FITC conjugated Annexin V was obtained from Invitrogen.
Apoptotic cells were determined as Annexin V positive cells.
To examine whether compound A induces normal PBMCs apoptosis, normal PBMCs from different healthy volunteers were incubated with 0 to 1 mM compound A for 24 hours. Cells apoptosis rate were measured as described above. […] Thus, these findings indicate that compound A has low cytotoxicity toward resting PBMCs.
(A). Five MM cell lines ARP1, ARK, MM.1S, MM.1R and U266 were cultured in the presence of 0 to 1 mM compound A. Cells were harvested after 1 day or 3 days of treatment. Compound A induced MM cell apoptosis were measured by Annexin V staining as described in Materials and Methods. (B). Same MM cell lines were treated with 0 to 1 mM compound A for 1 or 3 days. Cell growths were assessed by MTS assay. (C). Representative histograms of primary MM cells treated with compound A. (D). Data from 3 patients showing a dose-dependent induction of apoptosis in freshly isolated primary MM cells. Cells were treated with different doses of compound A for 1 day. (E). PBMCs isolated from 3 healthy volunteers were treated with compound A for 1 day.

In a further series the test system is U266. As to the kind of experiment: Annexin V apoptosis assay. The format is cell-based, human. The method, then: Apoptotic cells were determined as Annexin V positive cells. […] Compound A induced MM cells apoptosis were measured as described in Materials and Methods.
In series [2] the test system is MM cell lines ARP1, MM.1S and MM.1R. As to the kind of experiment: Apoptosis in coculture with BMSCs. Format: cell-based, human. The following applies: 10 μM compound A, 24 hours, BMSC coculture. The method, then:
For this purpose, BMSCs isolated from MM patient were cocultured with MM cell lines ARP1, MM.1S and MM.1R. The cells were treated with or without 10 μM of compound A for 24 hours. As a positive control, MM.1S cells were cocultured with or without BMSC and treated with or without 40 μg/ml of dexamethasone for 24 hours. After treatment, the MM cells were identified as CD138+ cells by APC-CD138 staining.
MM cell lines ARP1, MM.1S and MM.1R were cultured with 10 μM compound A for 3 days. rhIL-6 were added to final concentration of 5 ng/ml. As a positive control, MM.1S cells were treated with 40 μg/ml dexamethasone in the presence of 5 ng/ml of rhIL6 for the same time. Cells apoptosis rate was measured by annexin V staining. (B). Same MM cells were co-cultured with or without MM BMSC, and treated with 10 μM of compound A for 1 day. As a positive control, MM.1S cells were cocultured with or without BMSC and treated with 40 μg/ml dexamethasone for 1 day. CD138+ MM cells apoptosis rate was measured by Annexin V staining.

Series [3] has as its system MM cells ARP1, MM.1S and MM.1R. As to the kind of experiment: Low-dose single agents, apoptosis. Format: cell-based, human. The following applies: 1 μM compound A alone, 1 day.
Method: (§2) Compound A-induced cell apoptosis was detected by Annexin V binding assay as previously described (Zheng Y, Cai Z, Wang S, et al. Macrophages are an abundant component of myeloma microenvironment and protect myeloma cells from chemotherapy drug-induced apoptosis. Blood. 2009; 114 (17):3625-3628). Briefly, MM cells were cultured in 24-well plates and treated with 0 to 1 mM final concentrations of compound A for 24 or 72 hours. The cells were washed twice with cold PBS and resuspended in Annexin V binding buffer (Invitrogen). MM cells were stained with FITC-conjugated Annexin V and propidium iodide (PI) for 15 min at room temperature. Apoptotic cells were determined as Annexin V positive cells.
Next, the experiment was extended to other MM cell lines, and they were treated with low compound A (1 μM) and dexamethasone (40 μg/ml).
ARP1 cells were treated with 10 μM compound A (BK), 15 nM melphalan (Me), 40 μg/ml dexamethasone (De), 100 μM lenalidomide (Le), 10 μM Bortizomib (BT), or their combinations for 1 day. The cell apoptosis were measured as described. […] Cell apoptosis was measured. […] Same MM cell lines were treated with compound A for 1 day and cell growth were measured by MTS. […] Cell apoptosis were measured by annexin V staining. […] Cells apoptosis rates were measured by annxin V staining. […]
Series [4] deals with CD138− stromal cells (BMSCs). As to the kind of experiment: Cytotoxicity toward stromal cells in primary MM coculture. Format: cell-based, human. The following applies: 0 to 1 mM, 24 hours, versus primary MM cells.
Method: MM cell lines ARP1, ARK, MM.1S, MM.1R and U266 were maintained in RPMI-1640 medium supplemented with 10% fetal bovine serum, 100 U/ml penicillin and 100 μg/ml streptomycin at 37° C. and 5% CO2 Primary MM cells and MM BMSCs were isolated from bone marrow aspirates of myeloma patients. PBMCs were obtained from healthy volunteers. […] Compound A was dissolved in DMSO at 10 mM as stock solution. […] FITC conjugated Annexin V was obtained from Invitrogen.
as §2
To evaluate compound A function in primary MM cells, the study was extended to CD138+ primary MM cells freshly isolated from myeloma patients. […]
For a further series, the system named is ARP1 cells. Put plainly: Established MM model in SCID mice. Format: in vivo. The following applies: 5 μmol per kg per day intraperitoneal, versus PBS control. As for the experimental part: Six to eight week old female SCID mice were housed and monitored in MD. Anderson Cancer Center animal research facility. All experimental procedures and protocols had been approved by the Institutional Animal Care and Use Committee at The University of Texas M.D. Anderson Cancer Center. SCID mice were subcutaneously inoculated in the right flank with 1 million ARP1 cells suspended in 50 μl PBS. After palpable tumor developed (tumor diameters ≧5 mm), mice were treated with daily intraperitoneal injection of PBS or compound A (5 μmol per kg per day). Tumor sizes were measured every 5 days, and blood samples were collected with the same period. Tumor burdens were evaluated by measuring tumor size and detecting circulating human kappa chain.
Levels of human kappa chain in mice serum were measured by a quantitative ELISA (Bethyl Laboratories Inc) followed the vendor's protocol.
To examine compound A anti-MM effects in vivo, human MM model in SCID mice were established as described in Materials and Methods. When palpable tumors developed (≧5 mm diameters), mice (10 per group) received intraperitoneal injection of compound A (5 μmol per kg per day) or vehicle control PBS daily.
SCID mice were inoculated subcutaneously in the right flank with 1×10^6 ARP1 cells. Three to 4 weeks later when palpable tumors (≧5 mm in diameter) developed, mice (10 per group) were treated with intraperitoneal injections of PBS or compound A (100 nmol per mouse per day) daily. Tumor burdens were measured as (A) tumor volumes and (B) levels of circulating human kappa china in SCID mice sera detected by ELSA, and (C) survival of tumor-bearing mice.

For series [5], the system named is PI3K-Akt-mTOR pathway in MM cells. Put plainly: Immunoblotting, PI3K-Akt-mTOR pathway. The format is cell-based, human. As for the experimental part:
as §1
To further analyze the signaling pathways that were affected by compound A exposure in MM cells, immunoblotting was extended to other cell signaling molecules. First, the inhibitory effect of compound A on PI3K-Akt-mTOR pathway in MM cells was tested. […] This is probably because of increased apoptotic cells after compound A treatment. […] Such findings indicate that compound A inhibits PI3K-Akt-mTOR pathways in MM cells.
(A). […] Compound A induced activation and cleavage of caspase-3, caspase-9 and PARP is shown. (B). Same MM cells treated with 10 μM compound A were lysed for western blotting. (C) RP1 cells were treated with 10 μM compound A for 1, 6, 12 and 24 hours.
On the technique in general: In western blotting, separated proteins are transferred to a membrane and probed.

As for `Nc1cc(C(F)(F)F)c(-c2cc(N3CCOCC3)nc(N3CCOCC3)n2)cn1` [compound A, 5-(2,6-di-morpholin-4-yl-pyrimidin-4-yl)-4-trifluoromethyl-pyridin-2-ylamine], in series [1] (0 to 1 mM), the “toxicity toward normal PBMCs” value was “comparably low toxicity”. The PBMC apoptosis result in series [1] (10 μM) is “less than 40%”. In addition, the PBMC apoptosis entry in series [1] (100 μM) is given as “less than 40%”. Further, the “sensitivity to compound A induced apoptosis compared to other MM cell lines” value in the series on U266 is on record as “less sensitive”. The “effect of BMSCs on compound A induced MM cell apoptosis” value in series [2] is on record as “did not protect”. Also, the “cytotoxic effect of low dose alone” value in series [3] is “only limited cytotoxic effect”. Further, the “cytotoxicity toward CD138− stromal cells” value in series [4] is on record as “significantly lower cytotoxicity”. The “survival of tumor-bearing mice” value in the series with ARP1 cells is listed as “significantly prolonged”. For the same molecule, in the series with ARP1 cells (P<0.05), the “tumor burden measured by tumor volume” value is “significantly smaller tumor burdens”. In addition, the “tumor burden measured by level of circulating human kappa chain” value in the series with ARP1 cells (P<0.05, ELISA) is on record as “significantly smaller tumor burdens”. Moreover, in series [5] (10 μM compound A), the “p-Akt at Ser473 and Thr308” value was “down-regulated”. In addition, the “total Akt levels” value in series [5] (ARP1 and MM.1R cells, 10 μM) is recorded as “decreased”. For the same molecule, in series [5] (tested MM cell lines, 10 μM), the p-P70S6K levels entry is reported as “decreased” and the “total P70S6K expression” value is recorded as “remained constant”.
